Measurements reported in ChEMBL document CHEMBL4507277.

What was measured:
[1] = biological target: Fibroblast growth factor receptor 3 (Homo sapiens) (UniProt P22607); details: Compound concentration 1000.0 nM
[2] = biological target: Phosphatidylinositol 4,5-bisphosphate 3-kinase catalytic subunit delta isoform (Homo sapiens) (UniProt O00329); details: Compound concentration 1000.0 nM
[3] = biological target: GABA-A receptor; anion channel (Rattus norvegicus) (UniProt O09028+P15431+P18506+P18508+P19969+P20236+P23574+P23576+P28471+P28473+P30191+P62813+P63079+P63138+Q91ZM7+Q9ES14); details: Compound concentration 10.0 uM
[4] = biological target: Ephrin type-A receptor 8 (Homo sapiens) (UniProt P29322); details: Compound concentration 1000.0 nM
Sequence of Ephrin type-A receptor 8 (Homo sapiens) (P29322 whole entry): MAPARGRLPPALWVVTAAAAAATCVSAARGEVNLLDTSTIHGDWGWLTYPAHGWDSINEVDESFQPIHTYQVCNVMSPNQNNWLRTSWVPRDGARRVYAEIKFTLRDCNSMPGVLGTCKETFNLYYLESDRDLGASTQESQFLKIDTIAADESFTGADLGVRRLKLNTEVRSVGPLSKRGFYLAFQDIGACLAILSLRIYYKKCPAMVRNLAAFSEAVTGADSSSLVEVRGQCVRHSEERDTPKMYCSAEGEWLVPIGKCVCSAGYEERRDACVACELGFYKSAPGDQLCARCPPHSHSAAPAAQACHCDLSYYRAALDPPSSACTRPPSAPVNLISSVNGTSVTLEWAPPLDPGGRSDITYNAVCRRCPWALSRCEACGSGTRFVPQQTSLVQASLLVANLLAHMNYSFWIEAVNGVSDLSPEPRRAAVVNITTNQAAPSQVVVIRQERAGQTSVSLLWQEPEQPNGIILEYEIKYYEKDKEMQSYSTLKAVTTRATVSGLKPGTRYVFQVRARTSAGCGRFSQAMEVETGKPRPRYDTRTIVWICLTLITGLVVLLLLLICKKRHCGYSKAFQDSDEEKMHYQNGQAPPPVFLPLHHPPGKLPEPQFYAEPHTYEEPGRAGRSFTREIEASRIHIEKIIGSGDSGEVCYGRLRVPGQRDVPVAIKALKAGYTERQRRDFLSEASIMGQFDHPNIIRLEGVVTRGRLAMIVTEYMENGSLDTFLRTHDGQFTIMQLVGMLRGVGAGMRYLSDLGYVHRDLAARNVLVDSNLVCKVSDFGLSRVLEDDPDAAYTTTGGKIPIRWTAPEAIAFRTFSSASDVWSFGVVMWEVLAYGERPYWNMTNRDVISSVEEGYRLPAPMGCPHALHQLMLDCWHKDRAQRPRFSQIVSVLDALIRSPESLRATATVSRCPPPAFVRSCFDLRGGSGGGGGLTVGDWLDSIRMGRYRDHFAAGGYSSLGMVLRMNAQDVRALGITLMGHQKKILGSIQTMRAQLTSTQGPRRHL

[5] = biological target: Serine/threonine-protein kinase 24 (Homo sapiens) (UniProt Q9Y6E0); details: Compound concentration 1000.0 nM
Sequence of Serine/threonine-protein kinase 24 (Homo sapiens) (Q9Y6E0 whole entry, looked up): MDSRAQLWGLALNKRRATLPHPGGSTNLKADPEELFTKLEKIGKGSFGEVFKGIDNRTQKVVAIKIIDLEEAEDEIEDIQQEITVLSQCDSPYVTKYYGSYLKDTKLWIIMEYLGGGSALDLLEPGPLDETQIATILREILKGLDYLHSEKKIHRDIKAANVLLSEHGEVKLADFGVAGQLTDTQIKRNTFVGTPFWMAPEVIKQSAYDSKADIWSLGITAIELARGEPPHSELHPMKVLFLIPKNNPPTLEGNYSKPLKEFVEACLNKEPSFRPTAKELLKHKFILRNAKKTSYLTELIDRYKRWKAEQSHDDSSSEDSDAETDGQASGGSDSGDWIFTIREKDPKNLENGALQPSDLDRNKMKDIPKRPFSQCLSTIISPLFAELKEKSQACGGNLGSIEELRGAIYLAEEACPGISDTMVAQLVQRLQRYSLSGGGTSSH

[6] = biological target: Mitogen-activated protein kinase kinase kinase 20 (Homo sapiens) (UniProt Q9NYL2); details: Compound concentration 1000.0 nM
[7] = biological target: cGMP-dependent protein kinase 1 (Homo sapiens) (UniProt Q13976); details: Compound concentration 1000.0 nM
[8] = biological target: Protein kinase C iota type (Homo sapiens) (UniProt P41743); details: Compound concentration 1000.0 nM
[9] = biological target: Sodium-dependent dopamine transporter (Homo sapiens) (UniProt Q01959); details: Compound concentration 10.0 uM
[10] = biological target: Cyclin-dependent kinase 2 (Homo sapiens) (UniProt P24941); details: Compound concentration 1000.0 nM
[11] = biological target: Activin receptor type-1-like (Homo sapiens) (UniProt P37023); details: Compound concentration 1000.0 nM
[12] = system: Epidermal growth factor receptor (Homo sapiens), P00533 [G719C]; details: Compound concentration 1000.0 nM
[13] = biological target: Serine/threonine-protein kinase/endoribonuclease IRE1 (Homo sapiens) (UniProt O75460); details: Compound concentration 1000.0 nM
[14] = biological target: STE20/SPS1-related proline-alanine-rich protein kinase (Homo sapiens) (UniProt Q9UEW8); details: Compound concentration 1000.0 nM
[15] = system: Tyrosine-protein kinase ABL1 (Homo sapiens), P00519 [M351T]; details: Compound concentration 1000.0 nM
[16] = biological target: Mitogen-activated protein kinase kinase kinase kinase 4 (Homo sapiens) (UniProt O95819); details: Compound concentration 1000.0 nM
[17] = system: Tyrosine-protein kinase ABL1 (Homo sapiens), P00519 [E255K]; details: Compound concentration 1000.0 nM
[18] = biological target: Activin receptor type-1 (Homo sapiens) (UniProt Q04771); details: Compound concentration 1000.0 nM
[19] = biological target: D(1B) dopamine receptor (Homo sapiens) (UniProt P21918); details: Compound concentration 10.0 uM
[20] = biological target: Mitogen-activated protein kinase 9 (Homo sapiens) (UniProt P45984); details: Compound concentration 1000.0 nM
[21] = biological target: Serine/threonine-protein kinase WNK1 (Homo sapiens) (UniProt Q9H4A3); details: Compound concentration 1000.0 nM
[22] = biological target: Cyclin-dependent kinase 15 (Homo sapiens) (UniProt Q96Q40); details: Compound concentration 1000.0 nM
[23] = biological target: Serine/threonine-protein kinase SIK1 (Homo sapiens) (UniProt P57059); details: Compound concentration 1000.0 nM
Sequence of Serine/threonine-protein kinase SIK1 (Homo sapiens) (P57059 whole entry): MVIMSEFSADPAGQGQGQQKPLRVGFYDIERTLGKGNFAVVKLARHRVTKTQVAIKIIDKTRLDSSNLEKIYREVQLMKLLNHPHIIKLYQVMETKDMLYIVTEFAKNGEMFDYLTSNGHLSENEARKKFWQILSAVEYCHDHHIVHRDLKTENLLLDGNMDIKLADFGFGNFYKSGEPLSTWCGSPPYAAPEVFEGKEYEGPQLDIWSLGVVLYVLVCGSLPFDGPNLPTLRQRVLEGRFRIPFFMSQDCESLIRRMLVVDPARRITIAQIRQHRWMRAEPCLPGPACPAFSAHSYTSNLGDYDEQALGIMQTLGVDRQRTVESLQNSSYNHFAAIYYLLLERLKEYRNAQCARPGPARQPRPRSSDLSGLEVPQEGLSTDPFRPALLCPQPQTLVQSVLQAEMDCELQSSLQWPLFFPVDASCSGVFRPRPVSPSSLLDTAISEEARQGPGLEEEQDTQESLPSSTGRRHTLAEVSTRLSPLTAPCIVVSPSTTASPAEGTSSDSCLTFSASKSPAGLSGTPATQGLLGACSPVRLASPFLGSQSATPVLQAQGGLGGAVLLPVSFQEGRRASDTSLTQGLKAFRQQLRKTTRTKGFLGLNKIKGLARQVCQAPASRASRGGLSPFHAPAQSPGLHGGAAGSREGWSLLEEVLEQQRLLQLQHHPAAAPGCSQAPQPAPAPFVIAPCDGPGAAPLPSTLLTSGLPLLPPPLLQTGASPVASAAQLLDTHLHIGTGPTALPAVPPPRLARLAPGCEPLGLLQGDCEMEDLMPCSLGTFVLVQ

[24] = biological target: Calcium/calmodulin-dependent protein kinase type 1D (Homo sapiens) (UniProt Q8IU85); details: Compound concentration 1000.0 nM
[25] = biological target: Serine/threonine-protein kinase STK11 (Homo sapiens) (UniProt Q15831); details: Compound concentration 1000.0 nM
[26] = biological target: Serine/threonine-protein kinase Sgk3 (Homo sapiens) (UniProt Q96BR1); details: Compound concentration 1000.0 nM
[27] = biological target: Calcium/calmodulin-dependent protein kinase type 1B (Homo sapiens) (UniProt Q6P2M8); details: Compound concentration 1000.0 nM
Sequence of Calcium/calmodulin-dependent protein kinase type 1B (Homo sapiens) (Q6P2M8 whole entry): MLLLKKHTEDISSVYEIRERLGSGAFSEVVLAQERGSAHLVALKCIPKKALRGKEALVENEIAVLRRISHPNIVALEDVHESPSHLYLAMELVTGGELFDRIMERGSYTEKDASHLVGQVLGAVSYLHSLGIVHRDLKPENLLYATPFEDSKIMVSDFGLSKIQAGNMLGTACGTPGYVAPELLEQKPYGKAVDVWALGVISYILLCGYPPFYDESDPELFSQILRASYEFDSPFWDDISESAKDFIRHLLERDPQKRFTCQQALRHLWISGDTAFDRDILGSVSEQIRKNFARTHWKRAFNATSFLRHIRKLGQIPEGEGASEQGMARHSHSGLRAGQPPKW

[28] = biological target: Tyrosine-protein kinase ABL2 (Homo sapiens) (UniProt P42684); details: Compound concentration 1000.0 nM
[29] = biological target: Beta-adrenergic receptor kinase 1 (Homo sapiens) (UniProt P25098); details: Compound concentration 1000.0 nM
[30] = biological target: Dual specificity protein kinase CLK3 (Homo sapiens) (UniProt P49761); details: Compound concentration 1000.0 nM
[31] = biological target: NUAK family SNF1-like kinase 1 (Homo sapiens) (UniProt O60285); details: Compound concentration 1000.0 nM
[32] = biological target: Protein kinase C delta type (Homo sapiens) (UniProt Q05655); details: Compound concentration 1000.0 nM
[33] = system: Epidermal growth factor receptor (Homo sapiens), P00533 [T790M]; details: Compound concentration 1000.0 nM
[34] = biological target: Serine/threonine-protein kinase Nek7 (Homo sapiens) (UniProt Q8TDX7); details: Compound concentration 1000.0 nM
[35] = biological target: Serine/threonine-protein kinase D3 (Homo sapiens) (UniProt O94806); details: Compound concentration 1000.0 nM
[36] = biological target: Calcium/calmodulin-dependent protein kinase type II subunit beta (Homo sapiens) (UniProt Q13554); details: Compound concentration 1000.0 nM
Sequence of Calcium/calmodulin-dependent protein kinase type II subunit beta (Homo sapiens) (Q13554 whole entry): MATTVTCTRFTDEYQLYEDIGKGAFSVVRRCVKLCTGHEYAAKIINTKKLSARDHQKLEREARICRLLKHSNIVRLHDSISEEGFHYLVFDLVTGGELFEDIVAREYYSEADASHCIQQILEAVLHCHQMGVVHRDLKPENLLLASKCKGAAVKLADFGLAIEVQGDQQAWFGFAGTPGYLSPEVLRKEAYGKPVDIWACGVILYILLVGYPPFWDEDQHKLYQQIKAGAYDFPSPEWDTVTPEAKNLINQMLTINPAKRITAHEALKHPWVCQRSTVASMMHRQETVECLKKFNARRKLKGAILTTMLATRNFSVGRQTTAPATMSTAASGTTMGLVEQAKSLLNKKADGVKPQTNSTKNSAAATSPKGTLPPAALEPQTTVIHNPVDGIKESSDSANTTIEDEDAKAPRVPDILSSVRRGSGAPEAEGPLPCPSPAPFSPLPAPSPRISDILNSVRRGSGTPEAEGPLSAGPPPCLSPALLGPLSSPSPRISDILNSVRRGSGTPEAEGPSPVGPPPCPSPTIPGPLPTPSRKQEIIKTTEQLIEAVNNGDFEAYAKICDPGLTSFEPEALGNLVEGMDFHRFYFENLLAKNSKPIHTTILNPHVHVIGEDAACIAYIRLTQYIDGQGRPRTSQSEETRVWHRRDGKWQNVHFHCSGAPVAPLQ

[37] = biological target: Homeodomain-interacting protein kinase 2 (Homo sapiens) (UniProt Q9H2X6); details: Compound concentration 1000.0 nM
[38] = biological target: Serine/threonine-protein kinase MARK1 (Homo sapiens) (UniProt Q9P0L2); details: Compound concentration 1000.0 nM
Sequence of Serine/threonine-protein kinase MARK1 (Homo sapiens) (Q9P0L2 whole entry, looked up): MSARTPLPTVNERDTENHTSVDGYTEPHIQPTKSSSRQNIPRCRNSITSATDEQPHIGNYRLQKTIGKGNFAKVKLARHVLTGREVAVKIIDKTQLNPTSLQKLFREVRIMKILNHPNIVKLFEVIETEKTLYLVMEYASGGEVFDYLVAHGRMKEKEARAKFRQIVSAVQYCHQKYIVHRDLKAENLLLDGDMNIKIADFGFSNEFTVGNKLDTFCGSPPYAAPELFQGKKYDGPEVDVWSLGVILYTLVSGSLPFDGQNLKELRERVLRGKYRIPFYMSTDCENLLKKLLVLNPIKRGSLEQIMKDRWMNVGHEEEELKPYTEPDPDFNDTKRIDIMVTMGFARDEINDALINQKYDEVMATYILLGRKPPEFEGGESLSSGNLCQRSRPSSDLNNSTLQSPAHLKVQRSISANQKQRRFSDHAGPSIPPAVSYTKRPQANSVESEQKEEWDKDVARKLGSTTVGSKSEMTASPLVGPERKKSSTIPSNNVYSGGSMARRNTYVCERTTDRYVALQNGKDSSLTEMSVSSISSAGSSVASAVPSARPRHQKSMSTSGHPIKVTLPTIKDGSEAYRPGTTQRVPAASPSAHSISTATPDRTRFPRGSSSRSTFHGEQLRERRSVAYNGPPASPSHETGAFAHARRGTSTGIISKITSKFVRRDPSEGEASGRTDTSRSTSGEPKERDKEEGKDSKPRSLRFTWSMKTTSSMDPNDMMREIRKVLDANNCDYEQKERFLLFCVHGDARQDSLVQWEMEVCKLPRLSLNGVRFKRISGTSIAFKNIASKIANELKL

[39] = system: Receptor-type tyrosine-protein kinase FLT3 (Homo sapiens), P36888 [UNDEFINED MUTATION]; details: Compound concentration 1000.0 nM
Sequence of Receptor-type tyrosine-protein kinase FLT3 (Homo sapiens), P36888 [UNDEFINED MUTATION] (P36888 whole entry, looked up, change not shown): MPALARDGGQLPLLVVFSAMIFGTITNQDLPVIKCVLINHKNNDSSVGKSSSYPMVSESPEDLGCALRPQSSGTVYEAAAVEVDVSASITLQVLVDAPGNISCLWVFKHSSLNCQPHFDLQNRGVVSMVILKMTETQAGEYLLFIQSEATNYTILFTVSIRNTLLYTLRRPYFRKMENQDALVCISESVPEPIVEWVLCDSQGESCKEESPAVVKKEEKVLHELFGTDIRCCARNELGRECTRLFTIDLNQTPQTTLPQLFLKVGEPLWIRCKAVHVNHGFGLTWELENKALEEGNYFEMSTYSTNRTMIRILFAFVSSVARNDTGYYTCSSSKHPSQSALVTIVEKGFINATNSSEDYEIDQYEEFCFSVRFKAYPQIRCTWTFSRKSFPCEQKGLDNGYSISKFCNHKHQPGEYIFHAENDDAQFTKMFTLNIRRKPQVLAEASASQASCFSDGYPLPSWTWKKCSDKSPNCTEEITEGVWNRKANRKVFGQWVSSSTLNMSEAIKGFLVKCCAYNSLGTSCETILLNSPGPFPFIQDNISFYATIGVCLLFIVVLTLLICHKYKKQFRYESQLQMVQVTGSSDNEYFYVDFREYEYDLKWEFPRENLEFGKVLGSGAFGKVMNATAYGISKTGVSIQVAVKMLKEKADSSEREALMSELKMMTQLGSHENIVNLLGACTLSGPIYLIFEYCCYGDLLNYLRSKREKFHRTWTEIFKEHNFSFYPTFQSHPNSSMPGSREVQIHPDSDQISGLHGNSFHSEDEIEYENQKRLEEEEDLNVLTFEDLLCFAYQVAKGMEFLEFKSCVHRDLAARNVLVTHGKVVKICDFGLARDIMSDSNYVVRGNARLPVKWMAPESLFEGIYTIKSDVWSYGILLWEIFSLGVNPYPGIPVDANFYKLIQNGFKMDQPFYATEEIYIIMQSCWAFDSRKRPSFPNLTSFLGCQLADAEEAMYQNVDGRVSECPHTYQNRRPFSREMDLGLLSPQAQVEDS

[40] = biological target: Fibroblast growth factor receptor 1 (Homo sapiens) (UniProt P11362); details: Compound concentration 1000.0 nM
[41] = biological target: Cyclin-dependent kinase-like 1 (Homo sapiens) (UniProt Q00532); details: Compound concentration 1000.0 nM
[42] = biological target: Serine/threonine-protein kinase mTOR (Homo sapiens) (UniProt P42345); details: Compound concentration 1000.0 nM
[43] = biological target: Dual specificity protein kinase TTK (Homo sapiens) (UniProt P33981); details: Compound concentration 1000.0 nM
[44] = biological target: Serine/threonine-protein kinase 32C (Homo sapiens) (UniProt Q86UX6); details: Compound concentration 1000.0 nM

CCS(=O)(=O)c1cc2cc(C[C@](O)(CC(C)(C)c3ccc(F)cc3C(N)=O)C(F)(F)F)[nH]c2cn1
inactive: residual activity [1] 100% | residual activity [2] 89% | inhibition [3] 11% | residual activity [4] 82% | residual activity [5] 86% | residual activity [6] 87% | residual activity [7] 92% | residual activity [8] 100% | inhibition [9] -8.67% | residual activity [10] 94% | residual activity [11] 100% | residual activity [12] 100% | residual activity [13] 91% | residual activity [14] 100% | residual activity [15] 94% | residual activity [16] 92% | residual activity [17] 92% | residual activity [18] 100% | inhibition [19] 34.2% | residual activity [20] 100% | residual activity [21] 97% | residual activity [22] 88% | residual activity [23] 100% | residual activity [24] 100% | residual activity [25] 100% | residual activity [26] 89% | residual activity [27] 77% | residual activity [28] 80% | residual activity [29] 84% | residual activity [30] 100% | residual activity [31] 100% | residual activity [32] 100% | residual activity [33] 78% | residual activity [34] 100% | residual activity [35] 99% | residual activity [36] 97% | residual activity [37] 100% | residual activity [38] 100% | residual activity [39] 86% | residual activity [40] 94% | residual activity [41] 81% | residual activity [42] 77% | residual activity [43] 99% | residual activity [44] 100%

CCS(=O)(=O)c1cc2cc(C[C@@](O)(CC(C)(C)c3ccc(F)cc3C(N)=O)C(F)(F)F)[nH]c2cn1
active: residual activity [5] 0%
inactive: residual activity [1] 80% | residual activity [2] 90% | inhibition [3] 19.5% | residual activity [4] 100% | residual activity [6] 100% | residual activity [7] 89% | residual activity [8] 100% | inhibition [9] 2.58% | residual activity [10] 96% | residual activity [11] 100% | residual activity [12] 100% | residual activity [13] 75% | residual activity [14] 84% | residual activity [15] 96% | residual activity [16] 85% | residual activity [17] 90% | residual activity [18] 100% | inhibition [19] 32.4% | residual activity [20] 84% | residual activity [21] 90% | residual activity [22] 59% | residual activity [23] 100% | residual activity [24] 89% | residual activity [25] 100% | residual activity [26] 79% | residual activity [27] 85% | residual activity [28] 88% | residual activity [29] 50% | residual activity [30] 100% | residual activity [31] 77% | residual activity [32] 99% | residual activity [33] 88% | residual activity [34] 95% | residual activity [35] 100% | residual activity [36] 100% | residual activity [37] 100% | residual activity [38] 100% | residual activity [39] 73% | residual activity [40] 95% | residual activity [41] 78% | residual activity [42] 100% | residual activity [43] 78% | residual activity [44] 90%
